Data reported in US10226062B2, “Organic compounds” (priority 2013, dated 2019).

Legend:
Type in all cases: in vivo
[1] = tested on: umami and salt taste of 0.5% NaCl solution; assay: Tasting of NaCl solutions by flavourists (Example 2); details: 0.5% NaCl + 5 ppm compound compared with 0.5% NaCl reference; scale -3 (much lower) to 3 (much higher), 0 = same as reference; average of flavourists' ratings
Protocol: An aqueous NaCl solution (0.5% by weight) was prepared (reference) to which 5 ppm of a compound of formula (I) was added.
The samples were tasted by a group of flavourists. The intensity of the umami and salt taste of the NaCl solutions comprising a compound of formula (I) (0.5% NaCl; 5 ppm of a compound of formula (I)) was compared with that of the reference (0.5% NaCl) and rated according to the following intensity scale:
Taste effect much lower than reference: −3
Taste effect lower than reference: −2
Taste effect slightly lower than reference: −1
Taste effect same as reference: 0
Taste effect slightly higher than reference: 1
Taste effect higher than reference: 2
Taste effect much higher than reference: 3

[2] = tested on: taste of NaCl, MSG and Ribo solutions; assay: Taste enhancement of NaCl, MSG and Ribo solutions, tasted by flavourists (Example 3); details: linear scale 0 to 10; for Taste intensity NaCl: solution D (0.5% NaCl + 5 ppm compound) compared with A (0.5% NaCl, = 0.0), 5-10 flavourists; for Taste intensity MSG: solution E (0.5% NaCl + 0.03% MSG + 5 ppm compound) compared with B (0.5% NaCl + 0.03% MSG, = 5.0); for Taste intensity Ribo: solution F (0.5% NaCl + 0.015% Ribo + 5 ppm compound) compared with C (0.5% NaCl + 0.015% Ribo, = 5.0)
Protocol: Six solutions were prepared: • A a solution of 0.5% NaCl • B a solution of 0.5% NaCl and 0.03% MSG (monosodium glutamate) • C a solution of 0.5% NaCl and 0.015% Ribo (disodium 5-ribonucleotides=E635) • D a solution of 0.5% NaCl and 5 ppm of a compound of formula (I) • E a solution of 0.5% NaCl and 0.03% MSG and 5 ppm a compound of formula (I) • F a solution of 0.5% NaCl and 0.015% Ribo and 5 ppm of a compound of formula (I)
The samples were tasted by a group of 5-10 flavourists aged between 30 and 60. The taste of solution D was compared with that of A to determine the enhancement effect of a compound of formula (I) on NaCl. Similarly, solution E was compared with solution B and solution F with solution C to determine the enhancement effect of a compound of formula (I) on MSG and Ribo respectively. The effect was marked on a linear scale between 0 and 10, the greater the value the greater the effect. For a reference, the taste solutions of B and C were compared with A as well.

[3] = tested on: taste of vegetarian bouillon; assay: Vegetarian bouillon tasting by flavourists (Example 4); details: 10 ppm compound in vegetarian bouillon (32 g mix in 1 L boiling water); 4 flavourists
Protocol: A vegetarian bouillon mix was prepared from 204.71 g of sodium chloride, 147.76 g of dextrose monohydrate (ex Tapioca), 0.19 g of celery oleoresin, 0.19 g of oleoresin coriander seed, 418.64 g maltodextrin 5-8 DE, 37.65 g vegetable oil soya bean refined, 28.24 g yeast standard light, 3.76 g of onion powder, 3.76 g of garlic powder, 0.47 g of white pepper and 154.35 g of potato starch.
32 g of the well-mixed ingredients was added to 1 L of boiling water and stirred until completely dissolved.

[4] = tested on: umami- and salt-taste in comestible products; assay: Taste imparted in comestible products (general statement)

SMILES: CCC(CO)NCc1ccc2c(c1)OCO2 (stereo not shown) [N-piperonyl 1-hydroxy-2-butylamine]
- Taste intensity Salt (NaCl) [1]: 0.67
- Taste intensity Umami [1]: 0.33
- Taste intensity NaCl [2]: 1.0
- Taste intensity MSG [2]: 5.3
- Taste intensity Ribo [2]: 5.0

SMILES: CNCc1ccc2c(c1)OCO2 [N-piperonyl methylamine]
- Taste intensity Salt (NaCl) [1]: 0.25
- Taste intensity Umami [1]: 0.00

SMILES: CC(C)NCc1ccc2c(c1)OCO2 [N-piperonyl isopropylamine]
- Taste intensity Salt (NaCl) [1]: 0.50
- Taste intensity Umami [1]: 0.00

SMILES: CCNCc1ccc(O)c(OC)c1.Cl [N-vanillyl ethylamine hydrochloride]
- Taste intensity Salt (NaCl) [1]: 0.67
- Taste intensity Umami [1]: 0.67

SMILES: OCCNCc1ccc2c(c1)OCO2 [N-piperonyl 2-hydroxyethylamine]
- Taste intensity Salt (NaCl) [1]: 0.75
- Taste intensity Umami [1]: 0.00

SMILES: CCCNCc1ccc2c(c1)OCO2 [N-piperonyl n-propylamine]
- Taste intensity Salt (NaCl) [1]: 1.00
- Taste intensity Umami [1]: 0.00

SMILES: C[C@H](NCc1ccc2c(c1)OCO2)C(=O)O [N-piperonyl alanine]
- Taste intensity Salt (NaCl) [1]: 0.50
- Taste intensity Umami [1]: 0.00

SMILES: OCC(CO)NCc1ccc2c(c1)OCO2 [N-piperonyl 1,3-dihydroxy-2-propylamine]
- Taste intensity Salt (NaCl) [1]: 1.00
- Taste intensity Umami [1]: 0.50
- Taste intensity NaCl [2]: 2.3
- Taste intensity MSG [2]: 5.0
- Taste intensity Ribo [2]: 5.0

SMILES: CCC(CC)NCc1ccc2c(c1)OCO2 [N-piperonyl 3-pentylamine]
- Taste intensity Salt (NaCl) [1]: 0.50
- Taste intensity Umami [1]: 0.00
- Taste intensity NaCl [2]: 1.0
- Taste intensity MSG [2]: 6.3
- Taste intensity Ribo [2]: 5.3
- Taste of test bouillon compared with reference bouillon [3]: more umami, sweeter and more lingering

SMILES: COc1cc(CNCCO)ccc1O.Cl [N-(2-hydroxyethyl) vanillylamine hydrochloride]
- Taste intensity Salt (NaCl) [1]: 0.33
- Taste intensity Umami [1]: 0.67

SMILES: CCNCc1ccc2c(c1)OCO2 [N-piperonyl ethylamine]
- Taste imparted in comestible products [4]: imparted an umami- and salt-taste
- Taste intensity Salt (NaCl) [1]: 0.75
- Taste intensity Umami [1]: 0.25
- Taste intensity NaCl [2]: 1.3
- Taste intensity MSG [2]: 6.6
- Taste intensity Ribo [2]: 5.6
- Taste of test bouillon compared with reference bouillon [3]: more umami, more salty, slightly sweeter and had a slightly more powdery volatile effect
